# In PubChem BioAssay AID504501 (Sanford-Burnham Center for Chemical Genomics, 2011):
# Biological target: Sentrin-specific protease 8 (Homo sapiens) (UniProt Q96LD8)
# Experiment: SENP8 protease inhibitors, SAR follow-up, biochemical, luminescence (AID 504501)
# Conditions: recombinant SENP8 enzyme, luminescent protease assay
# Sentrin-specific protease 8 (Homo sapiens), sequence (Q96LD8 whole entry, looked up): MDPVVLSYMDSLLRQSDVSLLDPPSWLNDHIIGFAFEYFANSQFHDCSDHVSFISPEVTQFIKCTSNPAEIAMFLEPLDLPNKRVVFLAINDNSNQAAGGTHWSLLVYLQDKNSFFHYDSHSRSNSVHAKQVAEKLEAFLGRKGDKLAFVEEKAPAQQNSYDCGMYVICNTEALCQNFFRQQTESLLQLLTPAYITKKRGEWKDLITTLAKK
row,SMILES,IC50
1,Cc1cccc(C(=O)Nc2scc(-c3ccc(Br)cc3)c2C(=O)O)c1,3.75 µM
2,Fc1ccc(COc2ccc(C(=S)N3CCCC3)cc2)cc1,2.5 µM
